# Measured values published in publication PMC8881469, “Molecular recognition of formylpeptides and diverse agonists by the formylpeptide receptors FPR1 and FPR2” (Nature Communications, 2022).
# Read-outs that look alike come from different tables or passages of the source.
# Columns and labels:
# [1] = test system: FPR2; conditions: at various concentrations; cited from earlier work
# From the text: This may be due to the coupling of Gi, which stabilizes the receptor in one active conformation. Thus, it is difficult to speculate on the specific conformational states of FPR2 associated with pro-inflammatory and pro-resolving agonists.
# [2] = test system: FPR2 R205A; conditions: cited from earlier work
# From the text: (§1) To investigate critical structural determinants for the binding of CGEN-885A, we measured the CGEN-885A-induced signaling of FPR2 with mutations of residues in the CGEN-885A-binding pocket. […] Considering the negatively charged environment of the ligand-b ...
# [3] = test system: FPR2 R201A; conditions: cited from earlier work
# From the text: as §1
# [4] = test system: FPR2; conditions: cited from earlier work
# [5] = test system: FPR1 versus FPR2; conditions: cited from earlier work
# [6] = test system: FPR1; conditions: cited from earlier work
# [7] = test system: FPR1; conditions: short formylpeptides; cited from earlier work
# From the text: The human formylpeptide receptor (FPR) family comprises of three members, FPR1, FPR2 (also named FPRL1), and FPR3[1]. They were initially discovered and characterized as pattern recognition G protein-coupled receptors (GPCRs) to recognize peptides with N-terminal formyl methionine, which are derived from invading pathogens or host mitochondria as pathogen- or damage-associated molecular patterns (PAMPs and DAMPs)[1]–[5]. FPR1 and FPR2 share a high sequence similarity, yet they display different preferences of formylpeptides. FPR1 is a high-affinity receptor for many short formylpeptides suc ...
# [8] = test system: FPR1 R84D; assay: cAMP accumulation assay, HEK293 cells, Epac-based FRET biosensor H187, 1 µM forskolin; assay type: cell-based, human; conditions: FPR1 R84D vs wild type
# Description: (§2) An Epac-based FRET cAMP biosensor H187 was used to measure cellular cAMP levels. The plasmid encoding H187 was transfected into HEK293 cells to make stable cells reporting intracellular cAMP levels. In brief, the H187 stable cells were seeded in poly-D-lysine treated 96-well black clear-bottom plate at 30,000 cells per well. 24 h later, cells were transiently transfected with DNA encoding the N-terminal FLAG-tagged wild-type FPR1, FPR2 or mutants at an amount of 0.1 µg DNA per well. Assays were performed 24 h after transfection. Cells were washed twice with HBSS buffer and incubated at room temperature for 30 min before the addition of forskolin to a final concentration of 1 µM. The intracellular cAMP level was measured using a multimode reader (Spark 20 M, TECAN) measuring the fluorescence emission intensity at 485 nm and 535 nm upon the excitation at 430 nm. 15 min after forskolin incubation, cells were stimulated with agonists at different concentrations and measured for additional 20 min. The FRET signal was calculated as the normalized FRET ratio of fluorescence emission at 535 nm (F535) divided by emission at 485 nm (F485). The EC50 was determined with the FRET ratio at the timepoint of 1600 s. The data analysis was performed using the nonlinear regression fit logIC50 mode in GraphPad Prism.
# [9] = test system: FPR1 R205A; assay: as above; assay type: cell-based, human; conditions: FPR1 R205A vs wild type
# Description: as §2
# [10] = test system: FPR1 R201A; assay: as above; assay type: cell-based, human; conditions: FPR1 R201A vs wild type
# Description: as §2
# [11] = test system: FPR1 Y257F; assay: as above; assay type: cell-based, human; conditions: FPR1 Y257F vs wild type
# Description: as §2
# [12] = test system: FPR1 F102H; assay: as above; assay type: cell-based, human; conditions: FPR1 F102H vs wild type
# Description: as §2
# [13] = test system: FPR1 D106A; assay: as above; assay type: cell-based, human; conditions: FPR1 D106A vs wild type
# Description: as §2
# [14] = multiple studies; cited from earlier work
# [15] = test system: FPR2 F110A; assay: cAMP accumulation assay, HEK293 cells, Epac-based FRET biosensor H187, 1 µM forskolin; assay type: cell-based, human
# Description: as §2
# [16] = test system: FPR2 R205A; assay: as above; assay type: cell-based, human
# Description: as §2
# [17] = test system: FPR2 R201A; assay: as above; assay type: cell-based, human
# Description: as §2
# [18] = test system: FPR2; conditions: relative to C43; cited from earlier work
# From the text: Similar to peptide agonists, C43 causes conformational changes of residues in the activation chamber including V113^3.40 and W254^6.48 through direct interactions to activate the receptor.
compound,measurement,setting,value
"CCCCC[C@@H](O)/C=C/C=C\C=C\C=C\[C@@H](O)[C@@H](O)CCCC(=O)O [ATL, aspirin-triggered 15-epi-lipoxin A4]",FPR2 signaling responses,[1],unusual biphasic signaling responses
WKYMVm,"agonistic activity, effect of mutation R205A",[2],much compromised agonistic activities
same,"agonistic activity, effect of mutation R201A",[3],much compromised agonistic activities
fMLFII [formylpeptide agonist for both FPR1 and FPR2],agonist activity on FPR2,[4]; formylpeptide agonist,potent
same,fold higher potency in activating FPR1 than FPR2,[5]; FPR1 relative to FPR2,~ 100 fold
same,affinity for FPR1 relative to FPR2,[5]; FPR1 vs FPR2,higher affinity
same,agonist activity on FPR1,[6]; formylpeptide agonist,potent
"N-formyl-Met-Leu-Phe [fMLF, prototypical formylpeptide]",FPR1 affinity,[7],high-affinity
same,"potency in activating FPR1, effect of mutation R84D",[8],reduces the potency
same,"agonistic potency, effect of mutation R205A",[9],compromised agonistic potency
same,"agonistic potency, effect of mutation R201A",[10],compromised agonistic potency
same,"potency in activating FPR1, effect of mutation of Y257 to FPR2 counterpart",[11],reduced potency
same,"potency in activating FPR1, effect of mutation of F102 to FPR2 counterpart",[12],reduced potency
same,"agonistic potency, effect of mutation D106A",[13],compromised agonistic potency
same,fold less potent (in terms of EC50) in inducing FPR2 signaling than FPR1,[5]; FPR2 relative to FPR1,about 1000 fold
COc1cc(F)c([C@@H]2CNC(=O)[C@H]2NC(=O)Nc2ccccc2)c(F)c1 [BMS-986235],pro-resolving and cardiac protective effects,[14],pro-resolving and cardiac protective effects
COc1cccc(Cc2cc(C)nn(C(C)C(=O)Nc3ccc(Br)cc3)c2=O)c1 (centres unmarked) [Compound 17b],pro-resolving and cardiac protective effects,[14],pro-resolving and cardiac protective effects
CC(C)c1c(NC(=O)Nc2ccc(Cl)cc2)c(=O)n(-c2ccccc2)n1C [C43],"agonistic action, effect of mutation F110A",[15],nearly undetectable agonistic action
same,"agonistic action, effect of mutation R205A",[16],nearly undetectable agonistic action
same,"agonistic action, effect of mutation R201A",[17],nearly undetectable agonistic action
same,agonist activity on FPR2,[4]; small-molecule agonist,potent
same,ligand potency on alternating the para-position of the chloride group,[18],significant loss of ligand potency
same,agonist activity on FPR1,[6]; small-molecule agonist,potent
